Measurements: a compilation of properties of binary mixtures (doi:10.1021/acs.iecr.0c01496)

Assay: xn = mol fraction of the nth substance listed
Conditions: 101 kPa

CC[n+]1ccccc1.[Cl-] + CCCC[n+]1ccccc1.[Cl-]
viscosity [mPa·s]
Conditions	x1 = 0.121	x1 = 0.198	x1 = 0.302	x1 = 0.388	x1 = 0.504	x1 = 0.597	x1 = 0.702	x1 = 0.795	x1 = 0.804
363.1 K	–	–	–	–	–	–	–	58.2	57.9
368.1 K	–	–	–	–	–	–	–	47.6	47.5
373.1 K	–	–	–	–	–	–	–	39.3	39.3
378.1 K	–	–	–	–	–	–	–	–	32.7
383.1 K	–	–	–	–	–	–	–	27.4	27.4
388.1 K	–	–	–	–	–	28.8	25.5	23.1	–
393.1 K	–	–	–	–	–	24.4	21.6	19.7	–
398.1 K	–	–	–	25.3	–	20.7	–	16.8	–
403.1 K	–	–	–	21.5	20.1	17.8	15.9	14.53	–
408.1 K	–	–	20.2	18.5	17.4	15.39	13.73	12.63	12.79
413.1 K	–	–	17.5	15.98	15.22	13.41	11.98	–	11.23
418.1 K	17.66	17.21	15.22	13.94	–	11.79	10.54	9.75	9.93
423.1 K	15.42	15.14	13.36	–	11.92	10.44	9.33	8.67	8.86
428.1 K	13.58	13.44	11.83	10.85	10.69	9.32	–	–	7.96
433.1 K	12.06	12.04	10.56	9.69	9.66	–	7.5	7	7.21
438.1 K	10.81	10.88	–	8.73	8.81	7.61	–	6.37	6.58
443.1 K	9.77	9.92	8.64	7.94	–	6.96	6.22	5.84	–

CC[n+]1ccccc1.[Cl-] + CC[n+]1ccccc1.[Br-]
viscosity [mPa·s]
Conditions	403.1 K	408.1 K	413.1 K	418.1 K	423.1 K	428.1 K	433.1 K	438.1 K	443.1 K
x1 = 0.105	12.65	11.56	10.55	9.63	8.8	8.05	7.39	6.82	6.34
x1 = 0.196	12.66	11.53	10.51	–	–	7.97	7.31	6.75	6.27
x1 = 0.303	12.66	–	10.45	9.5	–	–	7.22	6.66	6.2
x1 = 0.387	12.65	–	10.31	9.37	8.55	7.84	7.23	6.69	6.22
x1 = 0.503	12.66	11.37	–	9.28	8.45	7.74	–	6.61	6.15
x1 = 0.613	12.67	11.33	10.19	–	–	7.65	7.05	–	6.08
x1 = 0.688	–	11.3	10.15	9.17	8.33	–	7	6.47	6.02
x1 = 0.803	12.66	11.26	10.08	9.08	8.24	7.52	6.9	6.38	5.94
x1 = 0.885	12.65	11.22	10.02	9.02	–	7.44	6.83	6.32	5.88

CCCC[n+]1ccccc1.[Cl-] + CCCC[n+]1ccccc1.[Br-]
viscosity [mPa·s]
Conditions	398.1 K	403.1 K	408.1 K	413.1 K	418.1 K	423.1 K	428.1 K	433.1 K	438.1 K	443.1 K
x1 = 0.084	–	–	22.9	19.4	16.6	–	12.56	11.09	9.91	8.95
x1 = 0.169	33.5	27.8	23.3	19.7	–	14.63	12.79	11.3	–	9.1
x1 = 0.292	33.8	28.1	23.6	20	17.2	14.84	12.97	–	10.22	9.22
x1 = 0.389	–	28.5	–	20.3	–	15.07	13.18	11.63	10.37	9.35
x1 = 0.469	–	29.1	24.5	20.9	18	15.61	13.69	12.13	–	9.81
x1 = 0.611	–	–	25.1	21.4	18.4	16.03	14.06	12.46	11.15	10.07
x1 = 0.689	–	–	–	21.5	–	16.11	14.13	12.51	11.17	10.08
x1 = 0.785	–	–	–	21.9	18.9	16.43	–	12.76	11.41	10.29
x1 = 0.892	–	–	–	–	–	–	14.84	–	–	10.63

CCCC[n+]1ccccc1.[Cl-] + CC[n+]1ccccc1.[Br-]
viscosity [mPa·s]
Conditions	x2 = 0.104	x2 = 0.193	x2 = 0.313	x2 = 0.408	x2 = 0.484	x2 = 0.604	x2 = 0.64	x2 = 0.694	x2 = 0.797	x2 = 0.894
368.1 K	–	–	–	–	56.3	46	43.6	39.7	–	–
373.1 K	–	–	–	–	47.7	39.5	37.6	34.5	–	–
378.1 K	–	–	–	–	40.7	34.1	32.6	30.1	26	–
383.1 K	–	–	–	38.5	34.8	29.6	28.3	26.3	23	–
388.1 K	–	–	–	32.9	–	25.7	24.7	–	20.4	–
393.1 K	–	36	31.5	28.3	25.9	22.5	–	20.4	–	16.16
398.1 K	–	30.5	27	24.4	22.5	19.7	19	18.01	16.16	14.53
403.1 K	28.4	26.1	23.3	–	19.7	–	16.77	15.99	14.46	13.09
408.1 K	24.4	22.4	20.2	18.5	17.27	15.38	–	14.24	–	11.82
413.1 K	21	–	17.7	16.27	15.24	13.66	–	–	–	10.69
418.1 K	–	16.98	15.51	14.37	13.52	12.2	–	–	10.53	9.7
423.1 K	16.01	14.92	–	12.77	12.04	10.92	10.59	10.27	–	–
428.1 K	14.14	13.22	–	11.41	10.79	–	9.53	–	8.64	8.01
433.1 K	12.59	11.8	10.96	10.25	–	8.86	–	8.41	7.85	7.31
438.1 K	11.29	10.6	9.89	9.26	8.8	–	7.81	7.65	7.17	–
443.1 K	10.22	9.6	8.97	8.42	8.01	7.32	–	6.98	–	6.11
